From patent US20120129811A1, “TRICYCLIC INHIBITORS OF PRO-MATRIX METALLOPROTEINASE ACTIVATION” (priority 2010, published 2012)
Structures can show the parent of a compound that is named as a salt.

Assays:
[1] = molecular target: T1, proMMP9(20-445;ΔFnII) (SEQ ID NO:6) (Homo sapiens, UniProt P14780, DEL216-390); test: ThermoFluor binding assay with proMMP9(20-445;ΔFnII)
T1 construct: start methionine (N); made in house; host or cells: E. coli BL21(DE3) RIL
T1 sequence (P14780 with tags, fused parts or gaps DEL216-390): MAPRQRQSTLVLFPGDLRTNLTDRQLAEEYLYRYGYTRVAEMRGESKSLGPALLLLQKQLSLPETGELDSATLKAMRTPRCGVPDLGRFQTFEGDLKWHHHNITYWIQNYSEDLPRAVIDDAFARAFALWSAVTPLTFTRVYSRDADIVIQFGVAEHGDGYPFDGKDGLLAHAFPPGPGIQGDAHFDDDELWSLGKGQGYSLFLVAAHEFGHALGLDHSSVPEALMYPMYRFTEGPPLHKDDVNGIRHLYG
Description: (§1) The ThermoFluor® (TF) assay is a 384-well plate-based binding assay that measures thermal stability of proteins (Biomol Screen 2001, 6, 429-40; Biochemistry 2005, 44, 5258-66). The experiments were carried out using instruments available from Johnson & Johnson Pharmaceutical Research & Development, LLC. TF dye used in all experiments was […] (1,8-ANS) (Invitrogen: A-47).
(§2) Compounds were arranged in a pre-dispensed plate (Greiner Bio-one: 781280), wherein compounds were serially diluted in 100% DMSO across 11 columns within a series. Columns 12 and 24 were used as DMSO reference and contained no compound. For multiple compound concentration-response experiments, the compound aliquots (50 nL) were robotically predispensed directly into black 384-well polypropylene PCR microplates (Abgene: TF-0384/k) using a Cartesian Hummingbird liquid handler (DigiLab, Holliston, Mass.). Following compound dispense, protein and dye solutions were added to achieve the final assay volume of 3 μL. The assay solutions were overlayed with 1 μL of silicone oil (Fluka, type DC 200: 85411) to prevent evaporation.
(§3) Assay plates were robotically loaded onto a thermostatically controlled PCR-type thermal block and then heated from 40 to 90° C. at a ramp-rate of 1° C./min for all experiments. Fluorescence was measured by continuous illumination with UV light (Hamamatsu LC6) supplied via fiber optics and filtered through a band-pass filter (380-400 nm; >60D cutoff). Fluorescence emission of the entire 384-well plate was detected by measuring light intensity using a CCD camera (Sensys, Roper Scientific) filtered to detect 500±25 nm, resulting in simultaneous and independent readings of all 384 wells. A single image with 20-sec exposure time was collected at each temperature, and the sum of the pixel intensity in a given area of the assay plate was recorded vs temperature and fit to standard equations to yield the Tm (J Biomol Screen 2001, 6, 429-40).
(§4) Thermodynamic parameters necessary for fitting compound binding for each proMMP were estimated by differential scanning calorimetry (DSC) and from ThermoFluor® data. The heat capacity of unfolding for each protein was estimated from the molecular weight and from ThermoFluor® dosing data.
ThermoFluor® with proMMP9(20-445; ΔFnII (SEQ ID NO:6)
The protein sample preparations included a desalting buffer exchange step via a PD-10 gravity column (GE Healthcare). The desalting buffer exchange was performed prior to diluting the protein to the final assay concentration of 2.8 μM proMMP9(20-445;ΔFnII) (SEQ ID NO:6). The concentration of proMMP9(20-445;ΔFnII) (SEQ ID NO:6) was determined spectrophotometrically based on a calculated extinction coefficient of ε280=39880 M^−1 cm^−1, a calculated molecular weight of 28.2 kDa, and calculated pI of 5.5. ThermoFluor® reference conditions were define as follows: 80 μg/mL (2.8 μM) proMMP9(20-445;ΔFnII) (SEQ ID NO:6), 50 μM 1,8-ANS, pH 7.0 Buffer (50 mM HEPES pH 7.0, 100 mM NaCl, 0.001% Tween-20, 2.5 mM MgCl2, 300 μM CaCl2). The thermodynamic parameters for proMMP9(20-445;ΔFnII) (SEQ ID NO:6) are as follows: Tm (° C.)=72 (+/−0.1), ΔUH(Tm) (cal mol^−1)=160000(+/−5000), ΔUSTm (cal mol^−1 K^−1)=434, ΔUCp (cal mol^−1 K^−1)=2400.

[2] = molecular target: T2, proMMP9(67-444;ΔFnII) (SEQ ID NO:5) (Homo sapiens, UniProt P14780, DEL216-390); test: ThermoFluor binding assay with proMMP9(67-444;ΔFnII)
T2 construct: start methionine (N); made in house; host or cells: E. coli BL21(DE3) RIL
T2 sequence (P14780 with tags, fused parts or gaps DEL216-390): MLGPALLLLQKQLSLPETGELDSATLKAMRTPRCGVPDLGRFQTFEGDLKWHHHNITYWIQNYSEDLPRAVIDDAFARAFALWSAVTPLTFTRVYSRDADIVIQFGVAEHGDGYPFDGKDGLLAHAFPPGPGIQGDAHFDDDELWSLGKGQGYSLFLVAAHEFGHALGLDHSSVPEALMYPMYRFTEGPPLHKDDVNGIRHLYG
Description: as §1, §2, §3, §4
ThermoFluor® with proMMP9(67-444;ΔFnM (SEQ ID NO:5)
The protein sample preparations had to include a desalting buffer exchange step via a PD-10 gravity column (GE Healthcare). The desalting buffer exchange was performed prior to diluting the protein to the final assay concentration of 3.5 μM proMMP9(67-444;ΔFnII) (SEQ ID NO:5). The concentration of proMMP9(67-444;ΔFnII) (SEQ ID NO:5) was determined spectrophotometrically based on a calculated extinction coefficient of ε280=33900 M^−1 cm^−1, a calculated molecular weight of 22.6 kDa, and calculated pI of 5.20. ThermoFluor® reference conditions were defined as follows: 80 μg/mL (3.5 μM) proMMP9(67-444;ΔFnII) (SEQ ID NO:5), 50 μM 1,8-ANS, pH 7.0 Buffer (50 mM HEPES pH 7.0, 100 mM NaCl, 0.001% Tween-20, 2.5 mM MgCl2, 300 μM CaCl2). The thermodynamic parameters for proMMP9(67-444;ΔFnII) (SEQ ID NO:5) are as follows: Tm (° C.)=63 (+/−0.1), ΔUH(Tm)(cal mol^−1)=105000(+/−5000), ΔUS(Tm) (cal mol^−1 K^−1)=450, ΔUCp (cal mol^−1 K^−1)=2000.

[3] = molecular target: T3, full-length proMMP9(1-707) activation by catalytic MMP3 (Homo sapiens, UniProt P14780, R574P); test: proMMP9/MMP3 P126 Activation Assay; type: biochemical
T3 construct: made in house; host or cells: proMMP9: HEK293 (secreted); MMP3: E. coli
Description: proMMP9/MMP3 P126 Activation Assay
The reaction volume was 50 μL. […] Reactivity of residual MMP3 towards P-126 substrate was minimal under these conditions.

T3 sequence (P14780 20-707 R574P): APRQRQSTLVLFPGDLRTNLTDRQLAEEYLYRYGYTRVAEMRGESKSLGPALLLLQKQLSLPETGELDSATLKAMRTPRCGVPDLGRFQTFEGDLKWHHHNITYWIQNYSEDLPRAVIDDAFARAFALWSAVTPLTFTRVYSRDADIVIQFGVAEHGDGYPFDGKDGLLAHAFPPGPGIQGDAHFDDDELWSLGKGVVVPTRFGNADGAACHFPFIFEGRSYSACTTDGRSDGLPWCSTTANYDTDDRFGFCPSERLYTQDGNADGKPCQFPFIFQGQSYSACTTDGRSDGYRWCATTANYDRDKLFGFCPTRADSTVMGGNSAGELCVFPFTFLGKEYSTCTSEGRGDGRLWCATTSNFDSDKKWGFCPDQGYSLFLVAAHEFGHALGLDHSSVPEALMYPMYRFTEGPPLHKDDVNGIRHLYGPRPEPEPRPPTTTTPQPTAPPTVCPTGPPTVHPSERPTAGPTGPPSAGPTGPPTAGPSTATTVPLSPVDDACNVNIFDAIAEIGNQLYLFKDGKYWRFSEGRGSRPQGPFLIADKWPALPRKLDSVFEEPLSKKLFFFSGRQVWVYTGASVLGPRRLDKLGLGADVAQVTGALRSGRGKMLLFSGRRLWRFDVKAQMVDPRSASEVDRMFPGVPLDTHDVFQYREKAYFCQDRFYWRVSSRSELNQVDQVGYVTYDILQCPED

Cc1nc2ccc3sc(Nc4cc(S(N)(=O)=O)ccc4OC(C)C)nc3c2n1C [Example 119, 3-(7,8-Dimethyl-8H-imidazo[4′,5′:3,4]-benzo[2,1-d]thiazol-2-ylamino)-4-isopropoxy-benzenesulfonamide.TFA]
Kd [1]: 910 nM | Kd [2]: 1200 nM | IC50 [3]: 500 nM

COc1ccc(P(=O)(O)O)cc1Nc1nc2c(ccc3c2ncn3C)s1 [Example 68, [4-Methoxy-3-(6-methyl-6H-imidazo[4′,5′:3,4]benzo[2,1-d]thiazol-2-ylamino)-phenyl]-phosphonic acid.HCl]
Kd [1]: 7500 nM | Kd [2]: 12000 nM | IC50 [3]: 7500 nM

Cn1cnc2c3nc(Nc4cccnc4)sc3ccc21 [Example 75, (6-Methyl-6H-imidazo[4′,5′:3,4]-benzo[2,1-d]thiazol-2-yl)-pyridin-3-yl-amine.HCl]
Kd [1]: > 95000 nM | Kd [2]: 15000 nM | IC50 [3]: ~18000 nM

COc1ccc(F)cc1Nc1nc2c(ccc3c2cnn3C)s1 [Example 93, (5-Fluoro-2-methoxy-phenyl)-(6-methyl-6H-3-thia-1,6,7-triaza-as-indacen-2-yl)-amine.HCl]
Kd [1]: 19000 nM | Kd [2]: 8100 nM | IC50 [3]: 180 nM

COc1ccc(S(=O)(=O)N2CCCCC2)cc1Nc1nc2c(ccc3c2ncn3C)s1 [Example 80, [2-Methoxy-5-(piperidine-1-sulfonyl)-phenyl]-(6-methyl-6H-imidazo[4′,5′:3,4]-benzo[2,1-d]thiazol-2-yl)-amine.HCl]
Kd [1]: 2300 nM | Kd [2]: 960 nM | IC50 [3]: 740 nM

CCCn1ncc2c3nc(Nc4cc(S(C)(=O)=O)ccc4OC)sc3ccc21 [Example 111, (5-Methanesulfonyl-2-methoxy-phenyl)-(6-propyl-6H-3-thia-1,6,7-triaza-as-indacen-2-yl)-amine.TFA]
Kd [1]: 3100 nM | Kd [2]: 1700 nM | IC50 [3]: 370 nM

COc1ccc(F)cc1Nc1nc2c(ccc3ncn(C)c32)s1 [Example 127, (5-Fluoro-2-methoxy-phenyl)-(8-methyl-8H-imidazo[4′,5′:3,4]benzo[2,1-d]thiazol 2-yl)-amine.TFA]
Kd [1]: 4300 nM | Kd [2]: 980 nM | IC50 [3]: 270 nM

COc1ccc(S(=O)(=O)N2CCOCC2)cc1Nc1nc2c(ccc3c2ncn3C)s1 [Example 81, [2-Methoxy-5-(morpholine-4-sulfonyl)-phenyl]-(6-methyl-6H-imidazo[4′,5′:3,4]benzo[2,1-d]thiazol-2-yl)-amine.HCl]
Kd [1]: 5200 nM | Kd [2]: 1200 nM | IC50 [3]: 750 nM

Cc1nc2ccc3sc(Nc4cc(S(N)(=O)=O)ccc4OC(F)(F)F)nc3c2n1C [Example 126, 3-(7,8-Dimethyl-8H-imidazo[4′,5′:3,4]-benzo[2,1-d]thiazol-2-ylamino)-4-trifluoromethoxy-benzenesulfonamide.TFA]
Kd [1]: > 95000 nM | Kd [2]: 2200 nM | IC50 [3]: 460 nM

COc1ccc(S(=O)(=O)N2CCCC2)cc1Nc1nc2c(ccc3c2ncn3C)s1 [Example 72, [2-Methoxy-5-(pyrrolidine-1-sulfonyl)-phenyl]-(6-methyl-6H-imidazo[4′,5′:3,4]benzo[2,1-d]thiazol-2-yl)-amine.HCl]
Kd [1]: 2100 nM | Kd [2]: 1600 nM | IC50 [3]: 460 nM

COc1ccc([N+](=O)[O-])cc1Nc1nc2c(ccc3c2ncn3C)s1 [Example 76, (2-Methoxy-5-nitro-phenyl)-(6-methyl-6H-imidazo[4′,5′:3,4]benzo[2,1-d]thiazol-2-yl)-amine.HCl]
Kd [1]: 530 nM | Kd [2]: 380 nM | IC50 [3]: 100 nM

COc1ccc(F)cc1Nc1nc2c(ccc3nc(C)n(C)c32)s1 [Example 125, (7,8-Dimethyl-8H-imidazo[4′,5′:3,4]benzo[2,1-d]thiazol-2-yl)-(5-fluoro-2-methoxy-phenyl)-amine.TFA]
Kd [1]: 3100 nM | Kd [2]: 600 nM | IC50 [3]: 260 nM

CCOP(=O)(OCC)c1ccc(OC)c(Nc2nc3c(ccc4c3ncn4C)s2)c1 [Example 66, [4-Methoxy-3-(6-methyl-6H-imidazo[4′,5′:3,4]benzo[2,1-d]thiazol-2-ylamino)-phenyl]-phosphonic acid diethyl ester.HCl]
Kd [1]: 5900 nM | Kd [2]: 1700 nM | IC50 [3]: 2300 nM

COc1ccncc1Nc1nc2c(ccc3nc(C)n(CC(F)(F)F)c32)s1 [Example 148, (4-Methoxy-pyridin-3-yl)-[7-methyl-8-(2,2,2-trifluoro-ethyl)-8H-imidazo[4′,5′:3,4]benzo[2,1-d]thiazol-2-yl]-amine.TFA]
Kd [1]: 860 nM | Kd [2]: 290 nM | IC50 [3]: 220 nM

COc1ccc(S(C)(=O)=O)cc1Nc1nc2c(ccc3ncn(C)c32)s1 [Example 135, (5-Methanesulfonyl-2-methoxy-phenyl)-(8-methyl-8H-imidazo[4′,5′:3,4]benzo[2,1-d]thiazol-2-yl)-amine.TFA]
Kd [1]: > 95000 nM | Kd [2]: 640 nM | IC50 [3]: 270 nM

CC(C)Oc1ccc(C(N)=O)cc1Nc1nc2c(ccc3[nH]nnc32)s1 [Example 47, 4-Isopropoxy-3-(3H-thiazolo[4′,5′:3,4]benzo[1,2-d][1,2,3]triazol-7-ylamino)-benzamide.HCl]
Kd [1]: 1000 nM | Kd [2]: 1600 nM | IC50 [3]: 600 nM

COc1ccc(Cl)cc1Nc1nc2c(ccc3nc(N)sc32)s1 [Example 7, N^7-(5-Chloro-2-methoxy-phenyl)-benzo[1,2-d;3,4-d′]-bisthiazole-2,7-diamine.TFA]
Kd [1]: 2300 nM | Kd [2]: 200 nM | IC50 [3]: 1700 nM

COc1ccncc1Nc1nc2c(ccc3c2ncn3C)s1 [Example 149, (4-Methoxy-pyridin-3-yl)-(6-methyl-6H-imidazo[4′,5′:3,4]benzo[2,1-d]thiazol-2-yl)-amine.TFA]
Kd [1]: 1000 nM | Kd [2]: 39 nM | IC50 [3]: 110 nM
